Assay results from patent publication US20200400567A1, “FUSION POLYPEPTIDE” (PEKING UNIVERSITY, priority 2017, published 2020).
Entries after “also recorded” stand apart in the source; their conditions may differ. Blank lines part the entries; values can stand above or below the molecule they belong to.

What was measured:
[1] = system: Gαq-mediated signal transduction pathway; experiment: TGFα release in Gαq stable cell lines; assay type: cell-based
From the text: The coupling of GRAB-ACh4.0 and downstream Gαq was detected. First, three stable cell lines were constructed based on the Gαq cell line: M3R (marked as CHRM3 in FIG. 51), GRAB-ACh4.0, and blank (marked as Gq in FIG. 51) cell lines; then, the release of TGFα was used to characterize the extent to which the Gαq protein was activated. […], causing the release of TGF-α with alkaline phosphatase even when there is no signal from Gαq. Therefore, TPA was added to cells as a positive control.

[2] = molecular target: GRAB-Oxt-Cter580 sensor (human); experiment: cell-based or functional assay
[3] = system: human acetylcholine receptor M3R subtype; experiment: GRAB-ACh sensor fluorescence response to ACh, drug perfusion in HEK293T cells; assay type: cell-based; details: GRAB-ACh 1.0 in cells, blocking agent mixed with ACh
Description: (§1) After DNA encoding specific GRAB sensor was introduced into cells by transfection, fluorescence imaging combined with perfusion experiment was. The imaging capture of HEK293T cells was performed using an Olympus IX81 inverted microscope, 40×NA: 1.35 oil lens, 475/28 excitation light filter, and 515LP emission light filter. The optical signal was collected by a Zyla sCMOS DG-152V-Cle FI camera (Andor), and Lambda DG-4 from Sutter Instuments company was used as a fluorescent light source. The exposure time was set to less than 50 ms and the acquisition frequency was 5 seconds. The entire imaging system was overall controlled by micromanager software.
The detection of the response of the GRAB sensor to the ligand (ΔF/F0) was performed using a drug perfusion method. The cells were placed in a standard physiological solution, and the formula thereof is: […]
The pH of the physiological solution was adjusted to about 7.4, and the small molecule drug was diluted with a part of the physiological solution to formulate solutions of respective concentrations of the small molecule ligand. […] Unless explicitly specified, the concentration of isoproterenol (ISO) for perfusion was 2 μM, and the concentration of acetylcholine for perfusion was 100 μM.
The perfusion system was equipped on a microscope, including a solution-introduced system made of syringe for injection, a multi-way valve, an imaging workbench and a suction pump. During the perfusion process, the imaging workbench was placed above the objective lens of the inverted microscope, and then the slide on which cell plated were placed in the workbench. Perfusion of different drugs were performed by controlling the switches of different pipes. In order to control the level of the solution in the workbench, the perfusion speed was set to one drop or so per second. After each drug treatment, the cells were washed with a physiological solution for more than five minutes to ensure that there were no residual drugs that will affect subsequent experiments. After the end of each experiment, the perfusion pipe and the workbench were cleaned with 75% ethanol three times to ensure that the residual drugs and impurities were fully washed away.
(§2) Fluorescence imaging data was processed using ImageJ software. For the performance of GRAB sensors in HEK293T cells and neurons, the fluorescence of entire cell body was selected as the data processing region. For living Drosophila imaging, fluorescence images on the same Z axis were analyzed by ImageJ software. The change in the fluorescence signal was indicated by its relative difference. The signal of background area without the expression of the sensor was first subtracted from the fluorescence signal, so as to obtain the real expression of the intensity of the fluorescent protein. Then, by calculating the fluorescence value F after adding the drug and the average fluorescence value F0 before adding, the relative fluorescence change ΔF/F=(F−F0)/F0 was obtained as the fluorescence response of the sensor to a specific drug. The change of ΔF/F0 with time was further plotted by Origin 8.6 software.
Based on GRAB-ACh 1.0, this peptide linker was optimized. First, based on a flexible amino acid (glycine, alanine), the peptide segment was screened for optimal length. The specific strategy was to change the length of the peptide linkers at the N-terminus and C-terminus from 0 to 5 amino acids, respectively, and to randomly combine the N-terminus with C-terminus to obtain all possible permutations. Fusion protein expression vectors containing various arrangements were expressed in HEK293T cells and subjected to perfusion experiments.

[4] = system: human acetylcholine receptor M3R subtype; experiment: GRAB-ACh 1.0 in cultured rat cortical neurons, perfusion; assay type: cell-based
Description: Newborn Sprague-Dawley rats were used for the primary culture of rat neurons. After the skin of rat was cleaned with alcohol, the head was dissected with surgical instruments, the brain was removed out and the vascular membrane on the surface of the cortex was carefully removed. The cortical tissue was cut into pieces and placed in a 0.25% trypsin solution, and digested for 10 minutes in an incubator at 37° C. After the digestion, the digestion was terminated with DMEM medium containing 5% FBS, and the cells were further isolated by slowly pipetting up and down ten times with a pipette. After standing for 5 minutes, the pellet containing the tissue debris was discarded and the upper layer solution was collected and centrifuged at 1,000 rpm for 5 minutes in a centrifuge. Thereafter, the supernatant was discarded and the neurons were resuspended with the Neurobasal+B27 medium which was used for culturing the neurons. The cell density was calculated using a cell counting chamber. After that, the cells were diluted at a density of 0.5-1×10^6 cells/ml and plated on the slides coated with poly-lysine (purchased from Sigma). […]
The optical response of neurons expressing the neurotransmitter sensor was observed by perfusion with a neurotransmitter solution. The neurotransmitter-specific optical signals were recorded, which were fast and stable, and have good repeatability in different neurons. […]

human DRD2 receptor = experiment: GRAB-GDA3.0 fluorescence response in HEK293T cells, drug perfusion; assay type: cell-based; details: saturated concentration of dopamine, HEK293T cells
From the text: There are 5 subtypes of human dopamine receptors in the body, which are named DRD1-DRD5. For constructing a fluorescent sensor, the receptors were screened preliminarily by inserting a fluorescent protein at any position in the third intracellular loop of the receptor. […] Specifically, for the third intracellular loop of the human DRD2 receptor, the insertion sites were set every 15 amino acids. Human DRD2 receptors inserted with circular permutated fluorescent proteins at different positions were expressed in HEK293T cells, and drug perfusion experiments were conducted with dopamine. […] After the positions sensitive to conformational change were determined, the surrounding amino acid sites thereof were further screened. The sites surrounding the amino acid position 252 at N-terminus and the sites surrounding the amino acid position 357 at the C-terminus were combined and different sensors were constructed. The sensors were expressed in HEK293T cells and subjected to drug perfusion experiments with dopamine. […] The peptide linkers were GG at the N-terminus and GGAAA at the C-terminus.

[5] = system: GRAB-GDA3.0 signal in mushroom body (MB); experiment: Odor-stimulated GRAB-GDA3.0 signal in mushroom body, in vivo two-photon imaging; design: species or system Drosophila
Description: Drosophila were kept in a 25-degree incubator with a standard medium. […] The adult Drosophila to be tested were transferred to a new culture tube within 0-2 days after emergence, and left at room temperature for 8-12 days. Before the imaging, the Drosophila were first fixed in a small dish, and then the square skull part near the eye was surgically removed to expose part of the brain. The adipose tissue and air sacs near the antennal lobes to be imaged were surgically removed to prevent interference with the fluorescent signal. In order to further reduce the degradation of image quality caused by the movement of Drosophila during the imaging, surgical forceps were used to cut the muscles underneath its halter. Throughout the dissection and imaging procedures, the brain of Drosophila was kept in a pre-chilled physiological solution, and the formula thereof is as follows: […]
Drosophila imaging was performed using an Olympus two-photon microscope, including Olympus BX61 WI microscope, 25×NA: 1.05 water lens, and Ti:Sapphire laser mode-locked laser for two-photon excitation. For GRAB sensor imaging experiments, the wavelength of the […] was set to 950 nm in order to successfully excite the fluorescent protein to produce fluorescence. The odor molecule isoamyl acetate (IA) used for stimulating Drosophila was purchased from Sigma, and was diluted in mineral oil at a ratio of 1:100. In the experiment, the isoamyl acetate was further diluted 5-40 times by mixing with air. The air mixed with odor molecules was provided at a position about 1 cm away from the tentacles of the Drosophila through a cavity about 1 cm wide on the experimental table. The odor molecule of different concentrations was tested by controlling the airflow. Each imaging cycle was 17.8 seconds, of which 5 to 10 seconds was the time for providing specific odor molecules. After the imaging experiment for odor function, the imaging area was scanned layer by layer with high resolution setting to obtain the distribution information of the olfactory bulb, which was later identified based on the information of olfactory bulb distribution at the antennal lobe reported in the literature.
The transgenic Drosophila UAS-GRAB-GDA3.0 was constructed to express the GRAB-GDA3.0 sensor in specific cells, driven by the corresponding GAL4 strain. First, GRAB-GDA3.0 was expressed in dopaminergic neurons (DAN) in all Drosophila, and the response induced by odor (isoamyl acetate) was examined by in vivo two-photon imaging (FIG. 39A).
A pharmacological study was performed on GRAB-GDA3.0.
The rate of GDA signal attenuation between normal Drosophila and Drosophila with reduced DAT expression was compared (this is the experiment of gene level research using DAT-RNAi described later). In DAN, the dopamine transporter (DAT) is located in the presynaptic membrane and […] DA intermittently and cyclically from the synapse. DAT-RNAi was used to inhibit DAT expression in DAN (FIG. 40G).

[6] = system: human β2 adrenergic receptor; experiment: GRAB-EPI sensor fluorescence response (ΔF/F0) to ISO, drug perfusion in HEK293T cells; assay type: cell-based; details: GRAB-EPI 1.0 in cells, blocking agent mixed with ISO
Description: as §1
The detection of the response of the GRAB sensor to the ligand (ΔF/F0) was performed using a drug perfusion method. […]
as §2, with “Then, by calculating the fluorescence value F after adding the drug and the average fluorescence value F0 before adding, the relative fluorescence change ΔF/F=(F−F0)/F0 was obtained as the fluorescence response of the sensor to a specific drug. The change of ΔF/F0 with time was further plotted by Origin 8.6 software.” left out

[7] = system: human acetylcholine receptor M3R subtype; experiment: GRAB-ACh 1.0 in acute mouse hippocampus brain slices, local perfusion, two-photon imaging; assay type: cell-based, mice; details: GRAB-ACh 1.0 expressing cells in brain slices
From the text: The DNA encoding GRAB-ACh 1.0 sensor was packed in lentivirus and expressed in the hippocampal neurons of mice, and its fluorescence performance was detected by local perfusion of acetylcholine.

Chain of GRAB-GDA3.0 signal in mushroom body (MB) (as listed by the source): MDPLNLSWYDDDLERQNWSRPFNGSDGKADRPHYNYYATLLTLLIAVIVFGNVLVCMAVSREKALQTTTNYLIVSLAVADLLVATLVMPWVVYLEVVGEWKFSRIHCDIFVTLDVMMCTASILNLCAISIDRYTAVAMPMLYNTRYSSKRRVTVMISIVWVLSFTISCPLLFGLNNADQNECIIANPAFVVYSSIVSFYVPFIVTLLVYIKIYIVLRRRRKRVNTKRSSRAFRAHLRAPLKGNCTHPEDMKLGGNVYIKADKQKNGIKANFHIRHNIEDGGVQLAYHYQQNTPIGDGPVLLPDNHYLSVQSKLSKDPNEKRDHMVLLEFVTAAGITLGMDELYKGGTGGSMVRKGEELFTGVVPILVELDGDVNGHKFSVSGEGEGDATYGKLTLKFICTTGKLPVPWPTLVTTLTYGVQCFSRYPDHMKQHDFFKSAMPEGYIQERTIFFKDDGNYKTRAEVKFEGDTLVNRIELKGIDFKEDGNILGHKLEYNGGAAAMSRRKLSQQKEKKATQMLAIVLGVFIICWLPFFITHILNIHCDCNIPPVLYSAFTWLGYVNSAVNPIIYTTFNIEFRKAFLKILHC
Chain of human DRD2 receptor (as listed by the source): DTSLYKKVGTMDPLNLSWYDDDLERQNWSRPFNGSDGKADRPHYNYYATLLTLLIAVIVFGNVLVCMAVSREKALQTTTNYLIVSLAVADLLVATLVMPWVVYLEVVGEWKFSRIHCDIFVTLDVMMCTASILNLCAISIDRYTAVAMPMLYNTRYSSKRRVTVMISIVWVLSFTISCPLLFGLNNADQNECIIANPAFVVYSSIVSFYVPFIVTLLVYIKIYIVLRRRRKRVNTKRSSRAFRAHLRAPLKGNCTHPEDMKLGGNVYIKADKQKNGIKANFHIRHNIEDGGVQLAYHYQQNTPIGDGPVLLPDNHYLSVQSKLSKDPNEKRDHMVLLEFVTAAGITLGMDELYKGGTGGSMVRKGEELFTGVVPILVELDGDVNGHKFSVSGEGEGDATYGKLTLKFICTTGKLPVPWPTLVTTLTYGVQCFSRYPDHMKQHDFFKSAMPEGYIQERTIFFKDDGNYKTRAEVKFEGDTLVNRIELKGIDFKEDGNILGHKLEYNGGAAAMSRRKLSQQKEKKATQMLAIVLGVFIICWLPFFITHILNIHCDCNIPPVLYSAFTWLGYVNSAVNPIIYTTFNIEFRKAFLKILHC
Chain of GRAB-Oxt-Cter580 sensor (human) (chain, as listed by the source limits assumed): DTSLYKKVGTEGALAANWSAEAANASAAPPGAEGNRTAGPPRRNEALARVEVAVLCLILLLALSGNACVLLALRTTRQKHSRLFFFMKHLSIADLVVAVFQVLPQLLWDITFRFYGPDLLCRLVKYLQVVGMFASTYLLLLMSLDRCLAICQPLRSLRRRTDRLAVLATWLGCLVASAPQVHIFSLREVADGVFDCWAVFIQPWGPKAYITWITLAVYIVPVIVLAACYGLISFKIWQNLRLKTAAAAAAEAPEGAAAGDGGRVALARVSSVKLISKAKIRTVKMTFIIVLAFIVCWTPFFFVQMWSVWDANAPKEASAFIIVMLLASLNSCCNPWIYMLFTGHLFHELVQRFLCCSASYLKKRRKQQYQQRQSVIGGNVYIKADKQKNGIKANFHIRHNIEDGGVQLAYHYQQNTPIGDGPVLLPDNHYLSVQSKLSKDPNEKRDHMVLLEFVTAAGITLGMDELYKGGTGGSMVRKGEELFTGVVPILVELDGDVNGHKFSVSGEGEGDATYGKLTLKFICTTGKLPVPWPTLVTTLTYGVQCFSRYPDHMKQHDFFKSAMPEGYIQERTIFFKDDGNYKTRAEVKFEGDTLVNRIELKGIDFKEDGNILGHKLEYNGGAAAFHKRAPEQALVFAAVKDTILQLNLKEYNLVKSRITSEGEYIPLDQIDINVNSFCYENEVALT

Molecule: WT-M3R: natural M3 type acetylcholine receptor without cpEGFP insertion
- activation of Gαq-mediated signal transduction pathway ([1]; gradient concentrations of ACh): activated the Gαq-mediated signal transduction pathway

- change in fluorescence signal (ΔF/F0) of the sensor on perfusion with the agonist (% ΔF/F0 at 1 µM Oxytocin) [2]: 10
Molecule: Oxytocin (from UniProt P01178 20-28) (peptide)

Molecule: C[N+]1(C)[C@@H]2C[C@@H](OC(=O)C(O)(c3cccs3)c3cccs3)C[C@H]1[C@@H]1O[C@@H]12 [Tio, Tiotropium bromide]
- effect of blocking agent on ligand (Ach)-induced fluorescence increase [3]: specifically blocked
- effect of antagonist on downstream signal induced by M3R ([1]; ACh): completely block
- effect of receptor blocker on response to acetylcholine [4]: can block

Molecule: GRAB-GDA3.0: human DRD2 receptor, positions 254 to 360 truncated, cpEGFP inserted, linkers GG-GGAAA, SEQ ID NO: 26
- signal change (human DRD2 receptor): 110%
- decay τ of odor-induced GDA signal ([5]; DAT-RNAi Drosophila): 1.85 s
- decay τ of odor-induced GDA signal ([5]; WT Drosophila): 0.48 s

Molecule: Cc1ccc(OCC(O)C(C)NC(C)C)c2c1CCC2 (stereo not shown) [ICI]
- effect of blocking agent on agonist (ISO)-induced fluorescence increase [6]: specifically blocked

Molecule: C[N+](C)(C)CC#CCN1CCCC1=O [Oxo-M]
- fluorescence response to agonist [7]: respond to; also recorded: obvious fluorescence enhancement
